From article PMC9571594, “Development of Semisynthetic Apoptosis-Inducing Agents Based on Natural Phenolic Acids Scaffold: Design, Synthesis and In-Vitro Biological Evaluation” (Molecules, 2022)
Converted amounts (≈) assume the structure as drawn. “And” between values parts separate entries of the source, which are not always exact repeats. Equal values may be shown once. Read-outs that look alike come from different tables or passages of the source.

Key:
[1] = MTT cell viability assay on normal Vero cells (selectivity); assay type: cell-based; settings: African green monkey, Vero cells (normal kidney cells)
Protocol: (§1) MCF-7 cells (Human breast adenocarcinoma), HepG2 (human hepatocellular carcinoma), A549 (human lung adenocarcinoma), Caco-2 (colon carcinoma), PANC-1 (human pancreatic cancer), and Vero cells (derived from normal kidney cells) were supplied by (Holding Company for Biological Products and Vaccines VACSERA; Giza, Egypt).
(§2) The effect of parent compounds and their derivatives were assessed by (3-(4,5-dimethylthiazol-2-yl)-2,5diphenyl-tetrazolium bromide) MTT assay. […] After a merged sheet of cells developed, the growth media was decanted from the 96-well microtiter and refilled with different concentrations of compounds (µg/mL), and the plate was incubated at 37 °C for 48 h to minimize exposure to the dissolving agent (Supporting Information).
(§3) MTT solution (BIO BASIC CANADA INC) was prepared [5 mg/mL in phosphate buffered saline (PBS)], added to each well and incubated for 4 h, then after removing the media, 200 μL of DMSO was added to each well to solubilize the formazan crystals and the optical density of the formazan product was measured at 560 nm using microplate reader (mindray, MR-96A). The results were calculated as the mean of the three independent experiments. […]
(§4) Determination of sample cytotoxicity on cells (MTT protocol) […]
(§5) well) and incubated at 37°C for 24 hours to develop a complete monolayer sheet.
(§6) 2- Growth medium was decanted from 96 well micro titer plates after confluent sheet of cells were formed, cell monolayer was washed twice with wash media.
(§7) 3- two-fold dilutions of tested sample was made in RPMI medium with 2% serum […]
(§8) 4- 0.1 ml of each dilution was tested in different wells leaving 3 wells as control, receiving only maintenance medium.
(§9) 5- Plate was incubated at 37°C and examined. Cells were checked for any physical signs of toxicity, e.g. partial or complete loss of the monolayer, rounding, shrinkage, […]
(§10) 6- MTT solution was prepared (5mg/ml in PBS) (BIO BASIC CANADA INC).
(§11) 8- 20ul MTT solution were added to each well. Place on a shaking table, 150rpm for 5 minutes, to thoroughly mix the MTT into the media.
(§12) 10) Dump off the media. (dry plate on paper towels to remove residue if necessary. […]

[2] = system: Vero normal cell line; assay: as above; assay type: cell-based; settings: for IC50: Chlorocebus sabaeus, MTT report T-4-019-5, Conc. ug/ml
Protocol: as §1, §2, §3, §4, §5, §6, §7, §8, §9, §10, §11, §12

[3] = system: Caco-2 cells; assay: Cell-cycle analysis by flow cytometry; assay type: cell-based; settings: Caco-2 cells; for %G0–G1 / %G2/M / %S: cell-cycle distribution after treatment; for %Pre-G1: Pre-G1 = apoptotic population
Protocol: The potential candidates with anti-tumor effect on the Caco-2 cell line along with a high SI were chosen for cell-cycle analysis. The cell-cycle distribution and cell death were analyzed using Annexin V-FITC/PI staining and flow cytometry (Table 4, Figure 4).
In order to determine the percentage of viable, apoptotic and necrotic cells after treatment with our compounds, double-staining with fluorescein isothiocyanate (FITC) and PI was performed. Annexin V-FITC Apoptosis Detection Kit (BioVision, CA, USA) was used. Briefly, cultured Caco-2 were treated with the tested compounds or DMSO for 24h. Cells were then collected by centrifugation at 2000 rpm for 5 min, and the pellet was washed with PBS then centrifuged again at 2000 rpm for 5 min then resuspended in 500μL of the kit’s binding buffer before adding the Annexin V-FITC and PI. The cells were then incubated at room temperature in the dark for 5 min. […]
Assay : Cell Cycle Analysis
Kit used : ab139418_Propidium Iodide Flow Cytometry Kit/BD
Assay samples :Cell culture
Cpd. No. Cpd. No. Cpd. No. Cpd. No.

[4] = system: A549 cells; assay: MTT cell viability assay, A549; assay type: cell-based, human; settings: for IC50 / viability at 15.625 µg/mL / viability at 31.25 µg/mL / viability at 62.5 µg/mL / viability at 125 µg/mL / viability at 250 µg/mL / viability at 500 µg/mL: Homo sapiens
Protocol: (§13) MCF-7 cells (Human breast adenocarcinoma), HepG2 (human hepatocellular carcinoma), A549 (human lung adenocarcinoma), Caco-2 (colon carcinoma), PANC-1 (human pancreatic cancer), and Vero cells (derived from normal kidney cells) were supplied by (Holding Company for Biological Products and Vaccines VACSERA; Giza, Egypt). The cells were cultured in PRMI 1640 medium (Lonza, Switzerland) supplemented with 10% fetal bovine serum (Gibco), 1% penicillin and 1% streptomycin (Sigma Aldrich, Saint Louis, MO, USA) at 37 °C under an atmosphere of 5% CO2 and 95% air.
as §2, §3, §4, §5, §6, §7, §8, §9, §10, §11
(§14) 10) Dump off the media. (dry plate on paper towels to remove residue if necessary. […] 9 ش - ايلعلا هبضهلا - مطقملا / ىسيئرلا لمعملا […]

[5] = system: MCF-7 cells; assay: MTT cell viability assay, MCF-7; assay type: cell-based, Human
Protocol: as §13, §2, §3, §4, §5, §6, §7, §8, §9, §10, §11, §14

[6] = system: HepG2 cells; assay: MTT cell viability assay, HepG2; assay type: cell-based, human
Protocol: as §13, §2, §3, §4, §5, §6, §7, §8, §9, §10, §11, §14

[7] = A549, MTT, 48 h, average of triplicates, read-out: IC50 (μM) ± SD A549
[8] = A549, MTT report T-4-019-5, Conc. ug/ml, read-out: IC50
[9] = Homo sapiens, MCF7, MTT, 48 h, average of triplicates, read-out: IC50 (μM) ± SD MCF-7
[10] = Homo sapiens, HepG2, MTT, 48 h, average of triplicates, read-out: IC50 (μM) ± SD HepG2

O=C(O)/C=C/c1ccc(O)c(O)c1 [Compound 1, Caffeic acid]
viability at 48 h, 15.625 ug/ml [1]: 99.1% | viability at 48 h, 31.25 ug/ml [1]: 99% | viability at 48 h, 62.5 ug/ml [1]: 99.3% | viability at 48 h, 125 ug/ml [1]: 63.6% | viability at 48 h, 250 ug/ml [1]: 22.9% | viability at 48 h, 500 ug/ml [1]: 18.1% | Toxicity % ([2]; 15.625 ug/ml): 0.8516% | Toxicity % ([2]; 31.25 ug/ml): 0.9732% | Toxicity % ([2]; 62.5 ug/ml): 0.7299% | Toxicity % ([2]; 125 ug/ml): 36.37% | Toxicity % ([2]; 250 ug/ml): 77.13% | Toxicity % ([2]; 500 ug/ml): 81.87% | IC50 [2]: 176 µg/mL (≈ 977 µM) | %G0–G1 [3]: 46.29 ± 3.1% | %G2/M [3]: 20.49 ± 1.92% | %S [3]: 33.22 ± 1.99% | %G0–G1 ([3]; listed as s1): 46.29% | %G2/M ([3]; listed as s1): 20.49% | %S ([3]; listed as s1): 33.22% | %Pre-G1 [3]: 11.31 ± 0.81% | %Pre-G1 ([3]; listed as caffeic acid): 11.31% | Toxicity % ([4]; A549, 15.625 ug/ml): 0.7435% | Toxicity % ([4]; A549, 31.25 ug/ml): 0.1239% | Toxicity % ([4]; A549, 62.5 ug/ml): 0.9913% | Toxicity % ([4]; A549, 125 ug/ml): 3.841% | Toxicity % ([4]; A549, 250 ug/ml): 52.91% | Toxicity % ([4]; A549, 500 ug/ml): 78.56% | IC50 [4, 7]: 1630 µM | viability at 15.625 µg/mL ([4]; A549, 15.625 ug/ml): 99.3% | viability at 31.25 µg/mL ([4]; A549, 31.25 ug/ml): 99.9% | viability at 62.5 µg/mL ([4]; A549, 62.5 ug/ml): 99% | viability at 125 µg/mL ([4]; A549, 125 ug/ml): 96.2% | viability at 250 µg/mL ([4]; A549, 250 ug/ml): 47.1% | viability at 500 µg/mL ([4]; A549, 500 ug/ml): 21.4% | IC50 [4, 8]: 317 µg/mL | IC50 [5, 9]: 970 µM | Toxicity % ([6]; HepG2, 15.625 ug/ml): 0.202% | Toxicity % ([6]; HepG2, 31.25 ug/ml): 0.101% | Toxicity % ([6]; HepG2, 62.5 ug/ml): 0.5051% | Toxicity % ([6]; HepG2, 125 ug/ml): 13.64% | Toxicity % ([6]; HepG2, 250 ug/ml): 72.12% | Toxicity % ([6]; HepG2, 500 ug/ml): 83.94% | IC50 [6, 10]: 1030 µM | viability at 15.625 µg/mL ([6]; Homo sapiens, HepG2, 15.625 ug/ml): 99.8% | viability at 31.25 µg/mL ([6]; Homo sapiens, HepG2, 31.25 ug/ml): 99.9% | viability at 62.5 µg/mL ([6]; Homo sapiens, HepG2, 62.5 ug/ml): 99.5% | viability at 125 µg/mL ([6]; Homo sapiens, HepG2, 125 ug/ml): 86.4% | viability at 250 µg/mL ([6]; Homo sapiens, HepG2, 250 ug/ml): 27.9% | viability at 500 µg/mL ([6]; Homo sapiens, HepG2, 500 ug/ml): 16.1% | IC50 ([6]; Homo sapiens, HepG2, MTT report T-4-019-5, Conc. ug/ml, read-out: IC50): 201 µg/mL

COc1cc(/C=C/C(=O)O)ccc1O [Compound 2, Ferulic acid]
viability at 48 h, 15.625 ug/ml [1]: 100% | viability at 48 h, 31.25 ug/ml [1]: 99.6% | viability at 48 h, 62.5 ug/ml [1]: 95.5% | viability at 48 h, 125 ug/ml [1]: 70.2% | viability at 48 h, 250 ug/ml [1]: 33.2% | viability at 48 h, 500 ug/ml [1]: 17.5% | Toxicity % ([2]; 15.625 ug/ml): 0% | Toxicity % ([2]; 31.25 ug/ml): 0.365% | Toxicity % ([2]; 62.5 ug/ml): 4.501% | Toxicity % ([2]; 125 ug/ml): 29.81% | Toxicity % ([2]; 250 ug/ml): 66.79% | Toxicity % ([2]; 500 ug/ml): 82.48% | IC50 [2]: 196 µg/mL (≈ 1010 µM) | %Pre-G1 [3]: 13.22% and 13.22 ± 0.63% | Toxicity % ([4]; A549, 15.625 ug/ml): 0.8674% | Toxicity % ([4]; A549, 31.25 ug/ml): 1.115% | Toxicity % ([4]; A549, 62.5 ug/ml): 0.7435% | Toxicity % ([4]; A549, 125 ug/ml): 4.089% | Toxicity % ([4]; A549, 250 ug/ml): 59.11% | Toxicity % ([4]; A549, 500 ug/ml): 75.96% | IC50 [4, 7]: 1740 µM | viability at 15.625 µg/mL ([4]; A549, 15.625 ug/ml): 99.1% | viability at 31.25 µg/mL ([4]; A549, 31.25 ug/ml): 98.9% | viability at 62.5 µg/mL ([4]; A549, 62.5 ug/ml): 99.3% | viability at 125 µg/mL ([4]; A549, 125 ug/ml): 95.9% | viability at 250 µg/mL ([4]; A549, 250 ug/ml): 40.9% | viability at 500 µg/mL ([4]; A549, 500 ug/ml): 24% | IC50 [4, 8]: 314 µg/mL | IC50 [5, 9]: 1120 µM | viability at 15.625 µg/mL ([5]; Homo sapiens, Mcf7, 15.625 ug/ml): 98.7% | viability at 31.25 µg/mL ([5]; Homo sapiens, Mcf7, 31.25 ug/ml): 99.4% | viability at 62.5 µg/mL ([5]; Homo sapiens, Mcf7, 62.5 ug/ml): 99.2% | viability at 125 µg/mL ([5]; Homo sapiens, Mcf7, 125 ug/ml): 84.9% | viability at 250 µg/mL ([5]; Homo sapiens, Mcf7, 250 ug/ml): 29.4% | viability at 500 µg/mL ([5]; Homo sapiens, Mcf7, 500 ug/ml): 11.7% | IC50 ([5]; Homo sapiens, Mcf7, MTT report T-4-019-5, Conc. ug/ml, read-out: IC50): 203 µg/mL | Toxicity % ([5]; Mcf7, 15.625 ug/ml): 1.286% | Toxicity % ([5]; Mcf7, 31.25 ug/ml): 0.6431% | Toxicity % ([5]; Mcf7, 62.5 ug/ml): 0.7503% | Toxicity % ([5]; Mcf7, 125 ug/ml): 15.11% | Toxicity % ([5]; Mcf7, 250 ug/ml): 70.63% | Toxicity % ([5]; Mcf7, 500 ug/ml): 88.32% | IC50 [6, 10]: 810 ± 2170 µM
